# In US10292985B2, “TGF beta receptor antagonists” (BRISTOL-MYERS SQUIBB COMPANY, priority 2015, dated 2019):
# Target: HIS-TGFβR1 T204D (Homo sapiens (Human), UniProt P36897, T204D)
# Experiment: HTRF probe-displacement assay, TGFβR1
# Type: binding
# Details: GST tagged wild type protein used instead of HIS-tagged protein (starred values)
# Protocol: Em: 520 nm/495 nm). […] Compounds were dissolved at 10 mM in dimethylsulfoxide (DMSO) and evaluated at eleven concentrations. IC50 values were derived by non-linear regression analysis.
# HIS-TGFβR1 T204D, sequence (P36897 34-503 T204D): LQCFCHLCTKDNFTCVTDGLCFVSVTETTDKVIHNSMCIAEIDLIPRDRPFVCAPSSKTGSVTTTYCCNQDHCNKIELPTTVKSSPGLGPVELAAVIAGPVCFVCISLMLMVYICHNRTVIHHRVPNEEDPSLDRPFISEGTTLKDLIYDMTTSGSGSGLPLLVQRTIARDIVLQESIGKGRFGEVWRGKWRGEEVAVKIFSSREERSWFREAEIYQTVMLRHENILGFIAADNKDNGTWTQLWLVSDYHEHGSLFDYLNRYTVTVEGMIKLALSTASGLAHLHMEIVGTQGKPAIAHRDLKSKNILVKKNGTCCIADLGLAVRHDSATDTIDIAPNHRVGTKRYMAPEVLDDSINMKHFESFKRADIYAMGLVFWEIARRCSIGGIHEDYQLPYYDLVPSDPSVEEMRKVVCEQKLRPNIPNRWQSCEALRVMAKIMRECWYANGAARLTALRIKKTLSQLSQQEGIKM
row,Structure (SMILES),IC50
1,"Cc1ccc(F)c(-c2nc(-n3ccc4cnccc43)c3cccn3n2)n1 [Example 4, 3-fluoro-6-methyl-2-(4-{1H-pyrrolo[3,2-c]pyridin-1-yl}pyrrolo[2,1-f][1,2,4]triazin-2-yl)pyridine]",18 nM
2,"CS(=O)(=O)Nc1cccc(-c2nc(-n3ccc4cnccc43)c3cccn3n2)n1 [Example 25, N-[6-(4-{1H-pyrrolo[3,2-c]pyridin-1-yl}pyrrolo[2,1-f][1,2,4]triazin-2-yl)pyridin-2-yl]methanesulfonamide]",33 nM
3,"Cc1cccc(-c2nc(Nc3ccnc4ccc(C(F)(F)F)cc34)c3cccn3n2)n1 [Example 16, N-[2-(6-methylpyridin-2-yl)pyrrolo[2,1-f][1,2,4]triazin-4-yl]-6-(trifluoromethyl)quinolin-4-amine]",940 nM
4,"Cc1cccc(-c2nc(Nc3ccnc4ccc(Br)cc34)c3cccn3n2)n1 [Example 12, 6-bromo-N-[2-(6-methylpyridin-2-yl)pyrrolo[2,1-f][1,2,4]triazin-4-yl]quinolin-4-amine]",280 nM

# Same assay, conditions: HIS-TGFβR1 T204D, 1 nM; 1 hour at room temperature
row,Structure (SMILES),IC50
1,"c1ccc(-c2nc(-n3ccc4cnccc43)c3cccn3n2)nc1 [Example 8, 2-(4-{1H-pyrrolo[3,2-c]pyridin-1-yl}pyrrolo[2,1-f][1,2,4]triazin-2-yl)pyridine]",1.1 nM
2,"COc1ccc2c(Nc3nc(-c4cccc(C(F)(F)F)n4)nn4cccc34)ccnc2c1 [Example 20, 7-methoxy-N-{2-[6-(trifluoromethyl)pyridin-2-yl]pyrrolo[2,1-f][1,2,4]triazin-4-yl}quinolin-4-amine]",4.2 nM
3,"Cc1cccc(-c2nc(Nc3ccnc4ccc(F)cc34)c3cccn3n2)n1 [Example 14, 6-fluoro-N-[2-(6-methylpyridin-2-yl)pyrrolo[2,1-f][1,2,4]triazin-4-yl]quinolin-4-amine]",6.6 nM
4,"FC(F)c1cccc(-c2nc(-n3ccc4cnccc43)c3cccn3n2)n1 [Example 29, 2-(difluoromethyl)-6-(4-{1H-pyrrolo[3,2-c]pyridin-1-yl}pyrrolo[2,1-f][1,2,4]triazin-2-yl)pyridine]",2.9 nM
5,"Cc1cccc(-c2nc(Nc3ccnc4cc(C(F)(F)F)ccc34)c3cccn3n2)n1 [Example 17, N-[2-(6-methylpyridin-2-yl)pyrrolo[2,1-f][1,2,4]triazin-4-yl]-7-(trifluoromethyl)quinolin-4-amine]",1.4 nM
6,"CSc1nccc(-c2nc(-n3ccc4cnccc43)c3cccn3n2)n1 [Example 35, 2-(methylsulfanyl)-4-(4-{1H-pyrrolo[3,2-c]pyridin-1-yl}pyrrolo[2,1-f][1,2,4]triazin-2-yl)pyrimidine]",2.2 nM
7,"Clc1cccc(-c2nc(-n3ccc4cnccc43)c3cccn3n2)n1 [Example 31, 2-chloro-6-(4-{1H-pyrrolo[3,2-c]pyridin-1}-ylpyrrolo[2,1-f][1,2,4]triazin-2-yl)pyridine]",4.7 nM
8,"Cc1cccc(-c2nc(Nc3ccnc4ccncc34)c3cccn3n2)n1 [Example 18, N-[2-(6-methylpyridin-2-yl)pyrrolo[2,1-f][1,2,4]triazin-4-yl]-1,6-naphthyridin-4-amine]",4.4 nM
9,"Cc1cccc(-c2nc(Nc3ccc4[nH]ncc4c3)c3cccn3n2)n1 [Example 36, N-[2-(6-methylpyridin-2-yl)pyrrolo[2,1-f][1,2,4]triazin-4-yl]-1H-indazol-5-amine]",1.5 nM
10,"Cc1nc(-c2nc(-n3ccc4cnccc43)c3cccn3n2)ccc1F [Example 23, 3-fluoro-2-methyl-6-(4-{1H-pyrrolo[3,2-c]pyridin-1-yl}pyrrolo[2,1-f][1,2,4]triazin-2-yl)pyridine]",1.3 nM
11,"CCc1cccc(-c2nc(-n3ccc4cnccc43)c3cccn3n2)n1 [Example 26, 2-ethyl-6-(4-{1H-pyrrolo[3,2-c]pyridin-1-yl}pyrrolo[2,1-f][1,2,4]triazin-2-yl)pyridine]",1.2 nM
12,"COc1cccc(-c2nc(-n3ncc4cnccc43)c3cccn3n2)n1 [Example 30, 2-methoxy-6-(4-{1H-pyrazolo[4,3-c]pyridin-1-yl}pyrrolo[2,1-f][1,2,4]triazin-2-yl)pyridine]",67 nM
13,"Cc1ccc(-c2nc(-n3ccc4cnccc43)c3cccn3n2)nc1 [Example 34, 5-methyl-2-(4-{1H-pyrrolo[3,2-c]pyridin-1-yl}pyrrolo[2,1-f][1,2,4]triazin-2-yl)pyridine]",12 nM
14,"COc1cccc(-c2nc(Nc3ccc4ncccc4c3)c3cccn3n2)n1 [Example 3, N-(2-(6-methoxypyridin-2-yl)pyrrolo[2,1-f][1,2,4]triazin-4-yl)quinolin-6-amine]",13000 nM
15,"FC(F)(F)c1cccc(-c2nc(-n3ccc4cnccc43)c3cccn3n2)n1 [Example 28, 2-(4-{1H-pyrrolo[3,2-c]pyridin-1-yl}pyrrolo[2,1-f][1,2,4]triazin-2-yl)-6-(trifluoromethyl)pyridine]",3.8 nM
16,"Cc1cccc(-c2nc(-n3ccc4cnccc43)c3cccn3n2)n1 [Example 5, 2-methyl-6-(4-{1H-pyrrolo[3,2-c]pyridin-1-yl}pyrrolo[2,1-f][1,2,4]triazin-2-yl)pyridine]",0.96 nM
17,"COc1ccc2c(Nc3nc(-c4cccc(C(F)F)n4)nn4cccc34)ccnc2c1 [Example 21, N-{2-[6-(difluoromethyl)pyridin-2-yl]pyrrolo[2,1-f][1,2,4]triazin-4-yl}-7-methoxyquinolin-4-amine]",1.8 nM
18,"Cc1cccc(-c2nc(Nc3ccnc4cccnc34)c3cccn3n2)n1 [Example 19, N-[2-(6-methylpyridin-2-yl)pyrrolo[2,1-f][1,2,4]triazin-4-yl]-1,5-naphthyridin-4-amine]",5.1 nM
19,"Cn1cnc2ccc(Nc3nc(-c4ccccn4)nn4cccc34)cc21 [Example 7, 1-methyl-N-[2-(pyridin-2-yl)pyrrolo[2,1-f][1,2,4]triazin-4-yl]-1H-1,3-benzodiazol-6-amine]",240 nM
20,"FC(F)(F)c1cccc(-c2nc(Nc3ccnc4cccnc34)c3cccn3n2)n1 [Example 2, N-{2-[6-(trifluoromethyl)pyridin-2-yl]pyrrolo[2,1-f][1,2,4]triazin-4-yl}-1,5-naphthyridin-4-amine]",20 nM
21,"Fc1cccc(-c2nc(-n3ccc4cnccc43)c3cccn3n2)n1 [Example 6, 2-fluoro-6-(4-{1H-pyrrolo[3,2-c]pyridin-1-yl}pyrrolo[2,1-f][1,2,4]triazin-2-yl)pyridine]",1.4 nM
22,"COc1ccc2nccc(Nc3nc(-c4cccc(C)n4)nn4cccc34)c2c1 [Example 11, 6-methoxy-N-[2-(6-methylpyridin-2-yl)pyrrolo[2,1-f][1,2,4]triazin-4-yl]quinolin-4-amine]",6.4 nM
23,"COc1ccc2c(Nc3nc(-c4cccc(C)n4)nn4cccc34)ccnc2c1 [Example 13, 7-methoxy-N-[2-(6-methylpyridin-2-yl)pyrrolo[2,1-f][1,2,4]triazin-4-yl]quinolin-4-amine]",1.1 nM
24,"FC(F)c1cccc(-c2nc(Nc3ccnc4cccnc34)c3cccn3n2)n1 [Example 22, N-{2-[6-(difluoromethyl)pyridin-2-yl]pyrrolo[2,1-f][1,2,4]triazin-4-yl}-1,5-napthyridin-4-amine]",5.8 nM
25,"Cc1cccc(-c2nc(Nc3ccnc4ccc(Cl)cc34)c3cccn3n2)n1 [Example 15, 6-chloro-N-[2-(6-methylpyridin-2-yl)pyrrolo[2,1-f][1,2,4]triazin-4-yl]quinolin-4-amine]",4.7 nM
26,"c1ccc(-c2nc(-n3cnc4cnccc43)c3cccn3n2)nc1 [Example 9, 2-(4-{1H-imidazo[4,5-c]pyridin-1-yl}pyrrolo[2,1-f][1,2,4]triazin-2-yl)pyridine]",5.1 nM
27,"COc1cccc(-c2nc(-n3ccc4cnccc43)c3c(Cl)ccn3n2)n1 [Example 24, 2-(5-chloro-4-{1H-pyrrolo[3,2-c]pyridin-1-yl}pyrrolo[2,1-f][1,2,4]triazin-2-yl)-6-methoxypyridine]",10 nM
28,"COc1cccc(-c2nc(-n3ccc4cnccc43)c3cccn3n2)n1 [Example 32, 2-methoxy-6-(4-{1H-pyrrolo[3,2-c]pyridin-1-yl}pyrrolo[2,1-f][1,2,4]triazin-2-yl)pyridine]",6.2 nM
29,"c1cc(-c2nc(-n3ccc4cnccc43)c3cccn3n2)nc(C2CC2)c1 [Example 27, 2-cyclopropyl-6-(4-{1H-pyrrolo[3,2-c]pyridin-1-yl}pyrrolo[2,1-f][1,2,4]triazin-2-yl)pyridine]",1.3 nM
30,"c1ccc(-c2nc(-n3ccc4ccncc43)c3cccn3n2)nc1 [Example 10, 2-(4-{1H-pyrrolo[2,3-c]pyridin-1-yl}pyrrolo[2,1-f][1,2,4]triazin-2-yl)pyridine]",310 nM
